Assay results reported in ChEMBL document CHEMBL1909281, “FDA-approved drug labeling for the study of drug-induced liver injury” (Drug Discov Today, 2011).

These compounds were tested on Hepatotoxicity (assay: FDA Liver Toxicity Knowledge Base Benchmark Dataset (LTKB-BD) drugs of most concern for DILI). Settings: not given.

Compound | LTKB_BD DILI severity score
CC1=C(CC(=O)O)c2cc(F)ccc2/C1=C\c1ccc([S+](C)[O-])cc1 (centres undefined) | 8
CCC[C@@]1(CCc2ccccc2)CC(O)=C([C@H](CC)c2cccc(NS(=O)(=O)c3ccc(C(F)(F)F)cn3)c2)C(=O)O1 | 8
CC(C)(C)NC(=O)[C@@H]1CN(Cc2cccnc2)CCN1C[C@@H](O)C[C@@H](Cc1ccccc1)C(=O)N[C@H]1c2ccccc2C[C@H]1O.O | 8
COc1ccc(CCN(C)CCCC(C#N)(c2ccc(OC)c(OC)c2)C(C)C)cc1OC (centres undefined) | 4
Nc1nc(NC2CC2)c2ncn([C@H]3C=C[C@@H](CO)C3)c2n1 [ABACAVIR] | 8
C[C@H]1O[C@H](O[C@H]2[C@H](O)[C@@H](O)[C@@H](O[C@H]3[C@H](O)[C@@H](O)C(O)O[C@@H]3CO)O[C@@H]2CO)[C@H](O)[C@@H](O)[C@@H]1N[C@H]1C=C(CO)[C@@H](O)[C@H](O)[C@H]1O (some centres undefined) [ACARBOSE] | 5
COc1cc(C)c(/C=C/C(C)=C/C=C/C(C)=C/C(=O)O)c(C)c1C [ACITRETIN] | 5
COC(c1ccccc1)(c1ccccc1)[C@H](Oc1nc(C)cc(C)n1)C(=O)O [AMBRISENTAN] | 5
Nc1ccc(C(=O)O)c(O)c1 [AMINOSALICYLIC ACID] | 5
CCCCc1oc2ccccc2c1C(=O)c1cc(I)c(OCCN(CC)CC)c(I)c1 [AMIODARONE] | 8
CC(O)(CS(=O)(=O)c1ccc(F)cc1)C(=O)Nc1ccc(C#N)c(C(F)(F)F)c1 (centres undefined) [BICALUTAMIDE] | 8
COc1ccccc1Oc1c(NS(=O)(=O)c2ccc(C(C)(C)C)cc2)nc(-c2ncccn2)nc1OCCO [BOSENTAN] | 7
CS(=O)(=O)OCCCCOS(C)(=O)=O [BUSULFAN] | 8
NC(=O)N1c2ccccc2C=Cc2ccccc21 [CARBAMAZEPINE] | 7
C[C@@](Cc1ccc(O)c(O)c1)(NN)C(=O)O.O [CARBIDOPA] | 4
O=C(O)c1cn(C2CC2)c2cc(N3CCNCC3)c(F)cc2c1=O [CIPROFLOXACIN] | 7

Compound | LTKB_BD DILI severity score
CN(C)/N=N/c1[nH]cnc1C(N)=O [DACARBAZINE] | 6
C#C[C@]1(O)CC[C@H]2[C@@H]3CCC4=Cc5oncc5C[C@]4(C)[C@H]3CC[C@@]21C [DANAZOL] | 8
O=C1CN(/N=C/c2ccc(-c3ccc([N+](=O)[O-])cc3)o2)C(O)=N1 [DANTROLENE] | 8
O=C(O)c1ccc(-n2nc(-c3ccccc3O)nc2-c2ccccc2O)cc1 [DEFERASIROX] | 7
O=c1[nH]cnc2c1ncn2[C@H]1CC[C@@H](CO)O1 [DIDANOSINE] | 8
CC(=O)O[C@@]12CO[C@@H]1C[C@H](O)[C@@]1(C)C(=O)[C@H](O)C3=C(C)[C@@H](OC(=O)[C@H](O)[C@@H](NC(=O)OC(C)(C)C)c4ccccc4)C[C@@](O)([C@@H](OC(=O)c4ccccc4)[C@H]21)C3(C)C.O.O.O [DOCETAXEL] | 8
CC[C@H]1OC(=O)[C@H](C)[C@@H](O[C@H]2C[C@@](C)(OC)[C@@H](O)[C@H](C)O2)[C@H](C)[C@@H](O[C@@H]2O[C@H](C)C[C@H](N(C)C)[C@H]2O)[C@](C)(O)C[C@@H](C)C(=O)[C@H](C)[C@@H](O)[C@]1(C)O [ERYTHROMYCIN] | 5
CC[C@@H](CO)NCCN[C@@H](CC)CO [ETHAMBUTOL] | 8
CCc1cccc2c3c([nH]c12)C(CC)(CC(=O)O)OCC3 (centres undefined) [ETODOLAC] | 8
NC(=O)OCC(COC(N)=O)c1ccccc1 [FELBAMATE] | 7
CC(C(=O)O)c1cccc(Oc2ccccc2)c1 (centres undefined) [FENOPROFEN] | 8
CC(C)C(=O)Nc1ccc([N+](=O)[O-])c(C(F)(F)F)c1 [FLUTAMIDE] | 8
NC(=O)NO [HYDROXYUREA] | 8
Cc1cc(C(=O)NNCc2ccccc2)no1 [ISOCARBOXAZID] | 5
NNC(=O)c1ccncc1 [ISONIAZID] | 8
CC(=O)N1CCN(c2ccc(OCC3COC(Cn4ccnc4)(c4ccc(Cl)cc4Cl)O3)cc2)CC1 (centres undefined) [KETOCONAZOLE] | 8

Same assay, conditions: Liver

Compound | LTKB_BD DILI severity score
Nc1ccn([C@@H]2O[C@H](CO)[C@@H](O)[C@@H]2O)c(=O)n1 [CYTARABINE] | 3
O=C(O)Cc1ccccc1Nc1c(Cl)cccc1Cl [DICLOFENAC] | 7
CC1=NN(c2ccc(C)c(C)c2)C(=O)/C1=N\Nc1cccc(-c2cccc(C(=O)O)c2)c1O [ELTROMBOPAG] | 6
OC(Cn1cncn1)(Cn1cncn1)c1ccc(F)cc1F [FLUCONAZOLE] | 8

What follows are compounds tested on Hepatotoxicity. Settings: not given.

Compound | LTKB_BD DILI severity score
CCC1=C(C)CN(C(=O)NCCc2ccc(S(=O)(=O)NC(=O)N[C@H]3CC[C@H](C)CC3)cc2)C1=O [GLIMEPIRIDE] | 7
COC1=CC(=O)C[C@@H](C)[C@]12Oc1c(Cl)c(OC)cc(OC)c1C2=O [GRISEOFULVIN] | 3
O=C(CCCN1CCC(O)(c2ccc(Cl)cc2)CC1)c1ccc(F)cc1 [HALOPERIDOL] | 5
CC(C)Cc1ccc(C(C)C(=O)O)cc1 (centres undefined) [IBUPROFEN] | 3
O=P1(NCCCl)OCCCN1CCCl (centres undefined) [IFOSFAMIDE] | 4
CN(C)CCCN1c2ccccc2CCc2ccccc21 [IMIPRAMINE] | 3
COc1ccc2c(c1)c(CC(=O)O)c(C)n2C(=O)c1ccc(Cl)cc1 [INDOMETHACIN] | 3
O[C@@H]1CO[C@H]2[C@@H]1OC[C@@H]2O [ISOSORBIDE] | 3
CC1=C(/C=C/C(C)=C/C=C/C(C)=C\C(=O)O)C(C)(C)CCC1 [ISOTRETINOIN] | 2
O=C(c1ccccc1)c1ccc2n1CCC2C(=O)O (centres undefined) [KETOROLAC] | 3
COC(=O)Nc1nc2ccc(C(=O)c3ccccc3)cc2[nH]1 [MEBENDAZOLE] | 3
COCCc1ccc(OCC(O)CNC(C)C)cc1 (centres undefined) [METOPROLOL] | 5
CN(C)c1ccc(O)c2c1C[C@H]1C[C@H]3[C@H](N(C)C)C(O)=C(C(N)=O)C(=O)[C@@]3(O)C(O)=C1C2=O [MINOCYCLINE] | 2
CC(C)(O)c1ccccc1CC[C@@H](SCC1(CC(=O)O)CC1)c1cccc(/C=C/c2ccc3ccc(Cl)cc3n2)c1 [MONTELUKAST] | 3
COC(=O)C1=C(C)NC(C)=C(C(=O)OC)C1c1ccccc1[N+](=O)[O-] [NIFEDIPINE] | 3
CNC(=C[N+](=O)[O-])NCCSCc1csc(CN(C)C)n1 [NIZATIDINE] | 5
CCOC(=O)C1=C[C@@H](OC(CC)CC)[C@H](NC(C)=O)[C@@H](N)C1 [OSELTAMIVIR] | 3
CN(C)[C@@H]1C(O)=C(C(N)=O)C(=O)[C@@]2(O)C(O)=C3C(=O)c4c(O)cccc4[C@@](C)(O)[C@H]3[C@H](O)[C@@H]12 [OXYTETRACYCLINE] | 2
Fc1ccc([C@@H]2CCNC[C@H]2COc2ccc3c(c2)OCO3)cc1 [PAROXETINE] | 8

Compound | LTKB_BD DILI severity score
CC(C)(S)[C@@H](N)C(=O)O [PENICILLAMINE] | 3
CCC1(c2ccccc2)C(=O)NC(=O)NC1=O [PHENOBARBITAL] | 3
CCc1ccc(CCOc2ccc(CC3SC(=O)NC3=O)cc2)nc1 (centres undefined) [PIOGLITAZONE] | 3
CN1C(C(=O)Nc2ccccn2)=C(O)c2ccccc2S1(=O)=O [PIROXICAM] | 3
CC[C@H](C)C(=O)O[C@H]1C[C@H](O)C=C2C=C[C@H](C)[C@H](CC[C@@H](O)C[C@@H](O)CC(=O)O)[C@H]21 [PRAVASTATIN] | 3
C[C@]12C=CC(=O)C=C1CC[C@@H]1[C@@H]2[C@@H](O)C[C@@]2(C)[C@H]1CC[C@]2(O)C(=O)CO [PREDNISOLONE] | 3
CC(C)NCC(O)COc1cccc2ccccc12 (centres undefined) [PROPRANOLOL] | 3
NC(=O)c1cnccn1 [PYRAZINAMIDE] | 3
CNC(=C[N+](=O)[O-])NCCSCc1ccc(CN(C)C)o1 [RANITIDINE] | 5
NC(=O)c1ncn([C@@H]2O[C@H](CO)[C@@H](O)[C@H]2O)n1 [RIBAVIRIN] | 7
CC(=O)S[C@@H]1CC2=CC(=O)CC[C@]2(C)[C@H]2CC[C@@]3(C)[C@@H](CC[C@@]34CCC(=O)O4)[C@H]12 [SPIRONOLACTONE] | 2
C=CC[C@@H]1/C=C(\C)C[C@H](C)C[C@H](OC)[C@H]2O[C@@](O)(C(=O)C(=O)N3CCCC[C@H]3C(=O)O[C@H](/C(C)=C/[C@@H]3CC[C@@H](O)[C@H](OC)C3)[C@H](C)[C@@H](O)CC1=O)[C@H](C)C[C@@H]2OC [TACROLIMUS ANHYDROUS] | 5
CN(C)[C@@H]1C(O)=C(C(N)=O)C(=O)[C@@]2(O)C(O)=C3C(=O)c4c(O)cccc4[C@@](C)(O)[C@H]3C[C@@H]12 [TETRACYCLINE] | 2
CN(C)CCOc1ccc(/C(=C(/CCCl)c2ccccc2)c2ccccc2)cc1 [TOREMIFENE] | 3
O=c1n(CCCN2CCN(c3cccc(Cl)c3)CC2)nc2ccccn12 [TRAZODONE] | 5
CN1CCN(CCCN2c3ccccc3Sc3ccc(C(F)(F)F)cc32)CC1 [TRIFLUOPERAZINE] | 2
COc1ccc(C(CN(C)C)C2(O)CCCCC2)cc1 (centres undefined) [VENLAFAXINE] | 7
CC(=O)CC(c1ccccc1)c1c(O)c2ccccc2oc1=O (centres undefined) [WARFARIN] | 5
CARBOPLATIN | 3

Same assay, conditions: Liver

Compound | LTKB_BD DILI severity score
CNCCCC12CCC(c3ccccc31)c1ccccc12 [MAPROTILINE] | 5
Cc1cccc(C)c1OCC(C)N (centres undefined) [MEXILETINE] | 3
COc1ccc2cc([C@H](C)C(=O)O)ccc2c1 [NAPROXEN] | 3
O=C1NC(=O)C(c2ccccc2)(c2ccccc2)N1 [PHENYTOIN] | 3
CN[C@H]1CC[C@@H](c2ccc(Cl)c(Cl)c2)c2ccccc21 [SERTRALINE] | 3
